The source made the active and inactive calls.
Tests used:
[1] = system: P388; assay: cells; format: functional; conditions: Mus musculus
[2] = system: SN12K1; assay: cells; format: functional; conditions: Homo sapiens
[3] = system: P388/ADR; assay: cells; format: functional; conditions: Mus musculus
[4] = biological target: T1, Corticotropin-releasing factor receptor 2/Corticotropin-releasing factor-binding protein (Homo sapiens, UniProt P24387+Q13324); assay: activators of CRF receptor 2 with binding protein – uHTS hits, confirmation (AID 602473); format: functional; conditions: read-out: EC50_Mean
T1 sequence (Q13324 whole entry): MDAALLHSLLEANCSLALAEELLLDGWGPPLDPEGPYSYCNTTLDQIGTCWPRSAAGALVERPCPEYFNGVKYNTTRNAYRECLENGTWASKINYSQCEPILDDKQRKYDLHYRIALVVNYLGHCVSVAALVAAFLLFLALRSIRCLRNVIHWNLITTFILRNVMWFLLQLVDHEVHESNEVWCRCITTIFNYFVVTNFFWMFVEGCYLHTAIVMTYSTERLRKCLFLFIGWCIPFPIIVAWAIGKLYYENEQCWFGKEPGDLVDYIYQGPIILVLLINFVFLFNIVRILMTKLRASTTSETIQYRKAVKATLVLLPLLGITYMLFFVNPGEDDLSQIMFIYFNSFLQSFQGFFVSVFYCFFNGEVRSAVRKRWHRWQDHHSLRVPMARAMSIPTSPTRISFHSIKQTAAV
T1 sequence (P24387 whole entry): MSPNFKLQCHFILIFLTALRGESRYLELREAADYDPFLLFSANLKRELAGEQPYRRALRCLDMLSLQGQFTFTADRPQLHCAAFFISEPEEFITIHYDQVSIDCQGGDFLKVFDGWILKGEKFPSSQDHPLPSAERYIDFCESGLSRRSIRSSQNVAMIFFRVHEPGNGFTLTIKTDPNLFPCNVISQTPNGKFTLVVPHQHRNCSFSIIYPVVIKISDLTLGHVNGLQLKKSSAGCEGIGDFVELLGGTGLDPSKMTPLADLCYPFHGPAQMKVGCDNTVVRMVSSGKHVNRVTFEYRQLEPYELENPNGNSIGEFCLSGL

[5] = biological target: T1, Corticotropin-releasing factor receptor 2/Corticotropin-releasing factor-binding protein; assay: Dose Response confirmation of uHTS hits for small molecule antagonists of the CRF-binding protein and CRF-R2 receptor complex.; format: functional; conditions: read-out: IC50_Mean
[6] = biological target: T2, Microphthalmia-associated transcription factor (Homo sapiens, UniProt O75030); assay: reducers of TRPM1 reporter luminescence, concentration series – cell-based, SK-MEL-5, cherry-picked, set 3, MITF inhibitor project, dose response (AID 493073); format: functional;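 note: SK-MEL-5 melanoma cells with luciferase driven by the MITF target TRPM1 promoter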
T2 sequence (O75030 whole entry): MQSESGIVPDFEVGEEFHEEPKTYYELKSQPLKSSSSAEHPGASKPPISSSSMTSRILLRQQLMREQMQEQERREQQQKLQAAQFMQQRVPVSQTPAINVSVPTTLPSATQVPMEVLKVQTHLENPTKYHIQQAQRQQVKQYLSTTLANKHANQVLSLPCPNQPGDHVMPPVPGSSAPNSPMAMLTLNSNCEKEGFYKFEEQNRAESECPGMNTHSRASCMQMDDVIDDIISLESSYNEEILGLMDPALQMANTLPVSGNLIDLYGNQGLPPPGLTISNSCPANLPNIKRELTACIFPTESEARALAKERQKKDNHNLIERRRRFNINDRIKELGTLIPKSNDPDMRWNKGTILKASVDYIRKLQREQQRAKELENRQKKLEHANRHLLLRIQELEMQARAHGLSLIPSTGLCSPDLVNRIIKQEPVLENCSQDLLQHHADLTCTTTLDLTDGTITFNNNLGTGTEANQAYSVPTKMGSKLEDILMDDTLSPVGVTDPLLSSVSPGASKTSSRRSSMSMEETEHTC

[7] = Vero E6 cell cytotoxicity, dose response, cytotoxicity control for non-replicating M. tuberculosis project, secondary assay (AID 492998); format: functional, VeroE6; conditions: Vero C1008
[8] = cells; format: functional
[9] = THP-1 cell cytotoxicity, dose response, cytotoxicity control for non-replicating M. tuberculosis project (AID 489025); format: functional
[10] = biological target: T3, Streptokinase A (Streptococcus pyogenes serotype M1, UniProt P10520); assay: viability-normalized secreted streptokinase activity reduction – plasminogen activation absorbance, OD405, dose response (AID 1914); format: functional, Streptococcus pyogenes M1 GAS;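 note: secreted streptokinase activity via plasminogen activation per viability signal from cell pellet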
T3 sequence (P10520 whole entry): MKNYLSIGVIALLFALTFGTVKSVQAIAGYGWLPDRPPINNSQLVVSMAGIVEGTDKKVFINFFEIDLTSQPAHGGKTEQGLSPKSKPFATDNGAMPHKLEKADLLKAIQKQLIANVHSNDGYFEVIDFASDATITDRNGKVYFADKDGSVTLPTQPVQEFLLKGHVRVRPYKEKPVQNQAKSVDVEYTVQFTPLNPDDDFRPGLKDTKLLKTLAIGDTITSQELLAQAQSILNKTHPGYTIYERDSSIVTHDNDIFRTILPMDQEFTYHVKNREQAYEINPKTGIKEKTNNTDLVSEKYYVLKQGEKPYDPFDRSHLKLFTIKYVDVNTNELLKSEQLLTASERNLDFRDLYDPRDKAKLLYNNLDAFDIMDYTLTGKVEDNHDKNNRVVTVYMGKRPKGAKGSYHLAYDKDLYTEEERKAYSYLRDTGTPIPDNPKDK

[11] = system: Streptococcus sp. 'group A'; assay: Streptococcus pyogenes SK(-)GAS viability under kanamycin – luminescence, BacTiterGlo, confirmation, counter-screen for streptokinase expression inhibitor project, dose response (AID 1900); format: functional, organism-based
[12] = system: Streptococcus; assay: GAS UMAA2166 growth inhibition – luminescence, BacTiterGlo, counter-screen for streptokinase expression inhibitor project, dose response (AID 1915); format: functional, organism-based;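 note: potency for reduction of bacterial viability or growth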
[13] = biological target: T4, Polyadenylate-binding protein 1 (Homo sapiens, UniProt P11940); assay: MLLE binding blockers, Cy5 peptide tracer – biochemical, fluorescence polarization, Cy5-PAM2 peptide, secondary, miRNA deadenylation inhibitor project, dose response (AID 602260); format: functional; conditions: read-out: IC50_Mean
T4 sequence (P11940 whole entry): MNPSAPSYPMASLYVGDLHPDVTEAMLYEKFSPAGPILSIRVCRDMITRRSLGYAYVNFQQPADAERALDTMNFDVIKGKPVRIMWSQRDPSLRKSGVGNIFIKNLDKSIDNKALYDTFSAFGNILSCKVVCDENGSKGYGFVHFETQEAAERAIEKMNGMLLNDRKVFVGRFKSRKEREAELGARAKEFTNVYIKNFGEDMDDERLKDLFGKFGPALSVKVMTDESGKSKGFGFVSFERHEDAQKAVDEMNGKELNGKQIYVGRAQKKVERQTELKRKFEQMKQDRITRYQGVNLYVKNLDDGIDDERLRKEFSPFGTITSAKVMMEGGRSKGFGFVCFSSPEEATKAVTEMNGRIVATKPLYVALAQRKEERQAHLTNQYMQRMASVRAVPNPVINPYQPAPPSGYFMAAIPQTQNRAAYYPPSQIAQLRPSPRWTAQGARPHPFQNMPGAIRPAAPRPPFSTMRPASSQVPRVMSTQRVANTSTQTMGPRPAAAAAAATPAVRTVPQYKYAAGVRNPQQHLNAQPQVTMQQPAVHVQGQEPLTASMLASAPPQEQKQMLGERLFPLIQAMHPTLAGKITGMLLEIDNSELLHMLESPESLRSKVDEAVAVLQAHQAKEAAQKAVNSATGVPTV

[14] = biological target: T5, Zinc finger protein mex-5 (Caenorhabditis elegans, UniProt Q9XUB2); assay: potency of MEX-5 RNA-binding blockers – biochemical, C. elegans, fluorescence polarization, dose response (AID 1960)
T5 sequence (Q9XUB2 whole entry): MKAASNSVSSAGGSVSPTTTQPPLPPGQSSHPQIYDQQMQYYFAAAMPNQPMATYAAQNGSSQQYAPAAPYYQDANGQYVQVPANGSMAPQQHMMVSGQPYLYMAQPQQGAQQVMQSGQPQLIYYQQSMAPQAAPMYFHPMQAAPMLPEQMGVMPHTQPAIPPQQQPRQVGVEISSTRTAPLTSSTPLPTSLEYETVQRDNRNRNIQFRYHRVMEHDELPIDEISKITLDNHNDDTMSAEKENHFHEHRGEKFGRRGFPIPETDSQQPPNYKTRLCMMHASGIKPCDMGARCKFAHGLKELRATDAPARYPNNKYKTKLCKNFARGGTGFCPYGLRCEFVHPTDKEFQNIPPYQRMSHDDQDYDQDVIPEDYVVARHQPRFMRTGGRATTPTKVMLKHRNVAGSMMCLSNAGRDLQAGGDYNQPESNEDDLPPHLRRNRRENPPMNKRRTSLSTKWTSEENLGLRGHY

[15] = biological target: T4, Polyadenylate-binding protein 1; assay: MLLE domain peptide-binding blockers, IC50 – biochemical, fluorescence polarization, FITC-PAM2 peptide, dose response (AID 602259); format: functional; conditions: read-out: IC50_Mean
[16] = biological target: T6, RNA-binding protein pos-1 (Caenorhabditis elegans, UniProt G5EF15); assay: disruptors of C. elegans POS-1 RNA interaction – biochemical, fluorescence polarization, dose response (AID 1964);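 note: purified POS-1 fused to maltose binding protein made in E. coli; potency of compounds blocking POS-1 binding to fluorescent RNA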
T6 sequence (G5EF15 whole entry): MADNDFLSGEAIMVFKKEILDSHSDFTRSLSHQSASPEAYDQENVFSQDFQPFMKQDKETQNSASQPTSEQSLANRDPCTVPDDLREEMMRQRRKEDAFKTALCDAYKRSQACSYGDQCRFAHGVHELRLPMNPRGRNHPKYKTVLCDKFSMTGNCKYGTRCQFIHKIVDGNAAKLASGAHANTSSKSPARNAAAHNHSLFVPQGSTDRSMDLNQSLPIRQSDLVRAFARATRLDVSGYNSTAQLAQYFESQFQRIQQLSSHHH

[17] = alpha-synuclein stem-loop luciferase translation blockers – H4 neuroglioma cells, luminescence, confirmation (AID 1988); format: functional, cell-based
[18] = system: H9c2; assay: cells; format: functional, cell-based; conditions: Rattus norvegicus, H9c2, Myocardium;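 note: confirmatory concentration-response retest of ultra-high-throughput screening hits for modulation of myocardial damage; cell death induced by hydrogen peroxide oxidative stress; compound pretreatment for 60 min then peroxide exposure for 2 h; potency is for protecting the cells against peroxide damage rather than for killing them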
[19] = Luminescence Cell-Based Dose Response HTS to Identify Inhibitors of 5'UTR Stem-Loop Driven Prion Protein mRNA Translation in H4 Neuroglioblastoma Cells. [Related pubchem assays: 1827 (Project Summary), 1813 (Primary HTS)]; format: functional
[20] = luciferase reporter signal suppression in cells – H4 neuroglioma cells, luminescence, dose response (AID 1990); format: functional, cell-based
[21] = biological target: Genome polyprotein (dengue virus type 2, UniProt P29990); assay: flavivirus cap methylation enzyme inhibition – biochemical, confirmation dose response, primary screen (AID 588689); format: functional
Chain of Genome polyprotein (P29990 2492-3391 limits assumed): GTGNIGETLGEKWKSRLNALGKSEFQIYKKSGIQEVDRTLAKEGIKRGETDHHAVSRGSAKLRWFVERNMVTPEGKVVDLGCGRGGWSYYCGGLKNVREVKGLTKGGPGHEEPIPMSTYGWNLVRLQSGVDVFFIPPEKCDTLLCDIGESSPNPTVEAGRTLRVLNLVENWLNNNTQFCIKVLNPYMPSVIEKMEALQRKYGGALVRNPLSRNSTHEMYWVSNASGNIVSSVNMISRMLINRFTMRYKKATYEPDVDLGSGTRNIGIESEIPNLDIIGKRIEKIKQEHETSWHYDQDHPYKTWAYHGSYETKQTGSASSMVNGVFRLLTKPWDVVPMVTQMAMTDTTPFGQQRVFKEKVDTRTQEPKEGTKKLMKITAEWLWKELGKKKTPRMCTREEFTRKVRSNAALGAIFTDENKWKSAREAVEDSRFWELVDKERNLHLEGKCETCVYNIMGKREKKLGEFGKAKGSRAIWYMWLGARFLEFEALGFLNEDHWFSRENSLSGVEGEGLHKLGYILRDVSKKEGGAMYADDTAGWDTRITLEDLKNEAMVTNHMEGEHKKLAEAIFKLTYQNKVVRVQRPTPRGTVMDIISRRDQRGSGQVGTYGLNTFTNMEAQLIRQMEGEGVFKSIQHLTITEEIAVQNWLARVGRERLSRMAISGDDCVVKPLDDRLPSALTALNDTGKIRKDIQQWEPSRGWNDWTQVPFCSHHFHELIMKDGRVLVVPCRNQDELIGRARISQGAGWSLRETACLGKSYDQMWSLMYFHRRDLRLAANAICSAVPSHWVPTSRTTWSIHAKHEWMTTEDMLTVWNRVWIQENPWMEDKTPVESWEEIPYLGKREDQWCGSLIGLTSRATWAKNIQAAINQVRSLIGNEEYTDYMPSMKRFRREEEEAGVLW

[22] = biological target: T7, Carboxy-terminal domain RNA polymerase II polypeptide A small phosphatase 1 (Homo sapiens, UniProt Q9GZU7); assay: CTDSP1 inhibitors, concentration-response, biochemical, absorbance readout, ultra-high-throughput screen actives (AID 540297); format: functional
T7 sequence (Q9GZU7 whole entry): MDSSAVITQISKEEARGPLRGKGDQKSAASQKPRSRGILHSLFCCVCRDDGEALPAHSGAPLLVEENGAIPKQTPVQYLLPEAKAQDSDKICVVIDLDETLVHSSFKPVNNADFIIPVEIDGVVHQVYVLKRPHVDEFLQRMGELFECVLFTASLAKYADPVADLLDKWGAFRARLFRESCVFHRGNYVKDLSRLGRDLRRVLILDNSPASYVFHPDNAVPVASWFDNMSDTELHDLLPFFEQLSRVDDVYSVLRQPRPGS

Compound | GI50 [1] | GI50 [2] | GI50 [3] | EC50 [4] | IC50 [5] | other results
CNC(=O)OCc1nc(SC(C)C)n(C)c1COC(=O)NC | 46.9 µM (inactive) | > 100 µM (inactive) | 83.6 µM (inactive) | – | – | –
COc1cc2c(cc1NC(=O)COC(=O)CNC(=O)c1ccccc1)oc1ccccc12 | – | – | – | > 53 µM (inactive) | > 47.1 µM (inactive) | –
COc1ccc(CCn2c(=O)c3cccnc3n(Cc3cccc([N+](=O)[O-])c3)c2=O)cc1OC | – | – | – | > 53 µM (inactive) | > 47.1 µM (inactive) | –
COc1ccccc1N1CCN(C(c2ccc(Cl)cc2)c2nnnn2C(C)(C)C)CC1 (stereo not given) | – | – | – | > 53 µM (inactive) | > 47.1 µM (inactive) | –
COc1ccc(CCn2c(=S)[nH]c3cc(C(=O)NCc4ccco4)ccc3c2=O)cc1OC | – | – | – | – | – | AC50 [6]: 17.7 µM (active)
Cc1ccc(C)c(-c2nnc(NC(=O)c3ccc([N+](=O)[O-])o3)o2)c1 | – | – | – | – | – | CC50 [7]: 11.6 µM (active); IC50 [8]: < 0.1 µM (active); CC50 [9]: 11.7 µM (active)
O=C(NNC1=Nc2ccccc2SC1)c1ccc(F)cc1 | – | – | – | – | – | EC50 [10]: > 150 µM (not active); EC50 [11]: 3.72 µM (active); EC50 [12]: 15.6 µM (active); CC50 [7]: > 20 µM (active); IC50 [8]: 23.5 µM (active); CC50 [9]: > 40 µM (active)
CC(C)(C)OC(=O)NC(Cc1ccccc1)C(=O)N1CCC(C(=O)NCC(=O)Nc2ccc(F)cc2)CC1 (stereo not given) | – | – | – | > 53 µM (inactive) | > 47.1 µM (inactive) | IC50 [13]: > 66 µM (inactive); EC50 [14]: 2.04 µM (inconclusive); IC50 [15]: 28.7 µM (inactive); EC50 [16]: 7.08 µM (active)
COc1cc(OC)cc(C(=O)NNC(=O)c2ccccn2)c1 | – | – | – | – | – | EC50 [17]: > 120 µM (not active); IC50 [18]: > 79 µM (inactive); CC50 [7]: 12.6 µM (active); EC50 [19]: 11.2 µM (active); IC50 [8]: 9.73 µM (active); EC50 [20]: 11.6 µM (active); CC50 [9]: 10.6 µM (active)
C=CCN(CC(=O)NCc1ccccc1)C(=O)c1csnn1 | – | – | – | > 53 µM (inactive) | > 47.1 µM (inactive) | –
Cc1cccc(-c2nnc3sc(-c4ccccc4C)nn23)c1 | – | – | – | – | – | CC50 [7]: > 20 µM (active); IC50 [8]: 34.6 µM (active); CC50 [9]: 39 µM (active)
O=C(NCc1cccc(Cl)c1)C1CCC(=O)N(CC2CCCCC2)C1 (stereo not given) | – | – | – | > 53 µM (inactive) | > 47.1 µM (inactive) | –
CNC(=O)C(C)C1CCC2(C)C=CC(=O)C(C)=C2C1O (stereo not given) | > 100 µM (inactive) | > 100 µM (inactive) | > 100 µM (inactive) | – | – | –
O=C(CC1=NCCN1)c1ccccc1 | > 750 µM (inactive) | > 750 µM (inactive) | 705 µM (inactive) | – | – | –
O=C1Nn2c(nc3c(c2=O)CCCC3)/C1=N/Nc1cccc(Cl)c1 | – | – | – | > 53 µM (inactive) | 19.2 µM (active) | IC50 [21]: 62.4 µM (active); IC50 [22]: 5.32 µM (active)
COc1cc(/C=C/C(=O)O)ccc1C(=O)OCc1ccccc1 | > 100 µM (inactive) | > 100 µM (inactive) | > 100 µM (inactive) | – | – | –
CN(C)CCNC(=O)c1cccc2cc3cc(O)ccc3nc12 | 0.0748 µM (active) | 0.339 µM (active) | 0.288 µM (active) | – | – | –
Nc1cc(O)c2cc(/N=N/c3ccc(/N=N/c4ccc(/N=N/c5ccc6cc(S(=O)(=O)O)cc(S(=O)(=O)O)c6c5)c5ccccc45)c4cc(S(=O)(=O)O)ccc34)c(S(=O)(=O)O)cc2c1 | > 100 µM (inactive) | > 100 µM (inactive) | – | – | – | –
COc1cc(C2c3cc4c(cc3[C@@H](Oc3ccc(F)cc3)C3COC(=O)[C@H]23)OCO4)cc(OC)c1O (stereo not given in full) | 0.327 µM (active) | 0.31 µM (active) | 0.354 µM (active) | – | – | –

Source: ChEMBL document CHEMBL1201862, “PubChem BioAssay data set” (2004)
